The values below come from article PMC10397409, “The action of physiological and synthetic steroids on the calcium channel CatSper in human sperm” (Frontiers in Cell and Developmental Biology, 2023).

Series [1] has as its target T1, CatSper (Homo sapiens, UniProt Q7RTX7+Q86XQ3+Q8NEC5+Q96P56).
T1 construct: Motile spermatozoa were selected by a ‘swim-up’ procedure; endogenous in cells; host or cells: motile human spermatozoa (swim-up) from healthy donors
The series can be described thus: Inhibition of P4-induced Ca2+ influx in human sperm (screen 2 inhibitors). The series is classed as cell-based. The conditions noted are these: for Max P4 inhibition (%) (± SD): 3 independent experiments.

In series [2] the target is T1, CatSper. The experiment in a line: Inhibition of PGE1-induced Ca2+ influx in human sperm (screen 2 inhibitors). The series is classed as cell-based. On the procedure:
Briefly, motile spermatozoa were selected by swim-up and labeled with the fluorescent calcium indicator Fluo-4 a.m. to image changes in [Ca^2+]i. After centrifugation to remove excess dye, Fluo-4 AM loaded cells were distributed in a 384-wells plate to obtain ∼125,000 cells/well. After measuring basal fluorescence, a first injection of compounds was performed in order to evaluate their effect on [Ca^2+]i alone. This first screen is therefore considered as a screen to search for ‘activators’. Fluorescence was recorded for 12 min during which sperm cells were continuously exposed to compounds. P4 or PGE1 were then added in the same wells to evaluate whether the tested compounds can reduce the ligand-induced activation of CatSper. This second screen was therefore considered to be a search for CatSper ‘inhibitors’.
Human semen samples were collected from healthy donors by masturbation after a recommended sexual abstinence period of minimum 2 days. Semen samples were allowed to liquefy at 37°C for 15–30 min. Motile spermatozoa were selected by a ‘swim-up’ procedure as previously described ([Strünker et al., 2011]). Briefly, 1 mL of semen was deposited in a 45°-inclined 50 mL Falcon tube with 4 mL of Human Tubular Fluid (HTF) medium containing: 93.8 mM NaCl, 4.7 mM KCl, 0.2 mM MgSO4, 0.37 mM KH2PO4, 2.04 mM CaCl2, 20.98 mM HEPES, 2.78 mM glucose, 21.4 mM Na-lactate, 4 mM NaHCO3, 0.33 mM Na-pyruvate, and the pH was adjusted to 7.35. Motile sperm were allowed to swim at 37°C for 1 hour. The supernatant was collected in 15 mL Falcon tubes and washed twice by centrifugation at 700 x g for 20 min. Sperm were supplemented with 3 mg/mL HSA. Written informed consent was obtained from all donors prior to donation and approved by the Cantonal Ethics Committee of the State of Geneva (CCER #14-147).
Cells were loaded with the fluorescent Ca^2+ indicator Fluo-4 AM at a final concentration of 2.5 µM for 30 min at 37°C. Excess dye was washed via centrifugation at 700 x g for 20 min and sperm were resuspended in HTF medium to obtain a final concentration of 6.25 x 10^6 cells/mL. 20 μL of cells (corresponding to ∼125,000 cells) loaded with Fluo-4 a.m. were dispensed in a 384-wells plate (Corning, NY, United States) to allow fluorescence measurement. The dye was excited at 480 nm, and emission was recorded at 530 nm. The change in [Ca^2+]i was assessed simultaneously in all wells using a Functional Drug Screening System (FDSS/μCELL) (Hamamatsu Phototonics K.K., Yokohama, Japan) at 37°C. Basal fluorescence was first measured for 30 s. […] P4 and PGE1 were tested at a near-saturating concentration in the HTS in order to evaluate a potential additive or synergistic effect induced by the compounds. Non-specific CatSper inhibitor MDL 12330A was used as a negative control at final concentration of 20 µM while DMSO was used as a vehicle control. For alkalization-induced Ca^2+ measurement, NH4Cl was used as a positive control at a final concentration of 10 mM. Fluorescence was recorded for a total of 16.5 min: 30 s before injection, 12 min after the first injection of the tested compounds, and 4 min after the second injection of either P4 or PGE1. The Prestwick library was tested in technical duplicate. Ca^2+ response curves were normalized using the following formula F−F0/F0×100 , where F 0 is the average of the basal fluorescence prior to the addition of the compound of interest and F corresponds to the fluorescence value at each time point. The ∆F/F0 of the vehicle control (DMSO) was subtracted from all the other values to adjust for dilution and pipetting artifacts. The values of all compounds were normalized to their respective controls.

The conditions of series [3]: ref Löfgren and Bäckström (1990), cited from earlier work.
For series [4], the target named is T1, CatSper. The experiment in a line: Cross-desensitization: P4 dose-response after pre-incubation with steroid at 10 µM. The series is classed as cell-based. The conditions noted are these: in the presence of predicted steroid at 10 µM, normalized to DMSO; P4 = control curve; n = 3; read-out: EC50 generated from concentration-response curves of P4-induced [Ca2+]i influx.

The test system of series [5] is human sperm. The experiment in a line: Sperm penetration in viscous media (modified Kremer test). The series is classed as cell-based. The settings on record: steroids 10 µM, P4 5 µM, 1 h, 1% methylcellulose. The protocol:
The ability of sperm to penetrate in viscous media similar in viscosity to that found in the female reproductive tract was assessed using the modified Kremer test, as previously described ([Rahban et al., 2021]). Briefly, swim-up recovered and capacitated sperm cells at 3 x 10^6/mL were incubated in the absence (DMSO) or presence of steroids (10 µM), or P4 (5 µM) as a positive control for 1 h at 37°C. A glass capillary (0.2 × 4.0 × 50 mm, CM scientific, UK) was filled with 1% (w/v) methylcellulose (MC, 4000 centipoises cP) prepared with HTF media supplemented with 3 mg/mL HSA, respective compounds (10 µM), P4 (5 µM), or DMSO. The glass capillary tube was then sealed on one end with wax (Vitrex, UK) and added to the sperm cells on the open end. Sperm penetration was assessed after 1 h of incubation at 37°C by counting sperm at 1 cm using a microscope with a ×10 objective.

Where [6] appears, read: IC50 (±SD), inhibition of P4-induced Ca2+ response, dose-response 90 µM to 0.3 nM.
The mark [7] stands for this setting: Mean IC50 (P4) µM (±SD), P4-induced response, pooled from 3 independent experiments.

Like-named read-outs stand apart in the source and are kept apart here.

On to `C[C@]12CC[C@H](O)C[C@@H]1CC[C@@H]1[C@@H]2CC[C@]2(C)C(=O)CC[C@@H]12` [Epiandrosterone], for which the “Max P4 inhibition (%) (± SD)” value in series [1] is on record as 72 (±2) %. Also, the IC50 is 0.628 µM in series [1] (setting [6]) and 0.625 µM in series [1] (setting [7]).
Regarding `CC(=O)[C@H]1CC[C@H]2[C@@H]3CC=C4C[C@@H](O)CC[C@]4(C)[C@H]3CC[C@]12C` [Pregnenolone], the IC50 in series [2] turned out to be 0.011 µM; in series [1] (setting [6]) it was 0.199 µM. For the same molecule, the “Max P4 inhibition (%) (± SD)” value in series [1] is recorded as 82 (±5) %.
Regarding `CC(=O)[C@H]1CC[C@H]2[C@@H]3CCC4=CC(=O)CC[C@]4(C)[C@H]3CC[C@]12C` [Progesterone], in series [1], the “Max P4 inhibition (%) (± SD)” value is given as 79 (±7) %. Moreover, the IC50 in series [1] (inhibition of P4-induced Ca2+ response, dose-response 90 µM to 0.3 nM, read-out: IC50 (±SD)) was determined as 0.006 µM. The Maximum serum level is 60 nM (female) in series [3] (female) and 3 nM (male) in series [3] (male). Moreover, the EC50 in series [4] was 0.005 µM.
For the molecule `C[C@]12Cc3c[nH]nc3C[C@@H]1CC[C@@H]1[C@@H]2CC[C@@]2(C)[C@H]1CC[C@]2(C)O` [Stanozolol], the IC50 in series [2] was 0.117 µM; in series [1] (setting [6]) it was 0.194 µM; in series [1] (setting [7]) it was 0.19 µM. Moreover, the “Max P4 inhibition (%) (± SD)” value in series [1] was 96 (±2) %. In addition, the “number of sperm penetrating viscous medium at 1 cm” value in series [5] is recorded as “significant increase in cell number”.

In general, IC50 refers to the concentration at which inhibition is half-maximal.
